Patent US11053204B2, “Pyrimidinyloxy benzene derivatives as herbicides” (FMC Corporation, priority 2015, dated 2021)

Columns and labels:
Type in all cases: in vivo
[1] = tested on: barnyardgrass (Echinochloa crus-galli); test: Test A preemergence, visual injury rating; details: 0 to 100 scale (0 no effect, 100 complete control)
Method in brief: (§1)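 Pre- and postemergence greenhouse screen. Soil: loam + sand. Spray carrier: solvent mixture, non-phytotoxic, with surfactant. Post timing at 1–2 leaves, height 2–10 cm. Readout: visual injury on a 0–100 scale roughly 10 days after application, untreated plants as reference.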

corn (Zea mays) [2] = test: Test A preemergence, visual injury rating; details: 0 to 100 scale (0 no effect, 100 complete control)
Method in brief: as §1

[3] = tested on: giant foxtail (Setaria faberii); test: Test A preemergence, visual injury rating; details: 0 to 100 scale (0 no effect, 100 complete control)
Method in brief: as §1

[4] = tested on: large (Lg) crabgrass (Digitaria sanguinalis); test: Test A preemergence, visual injury rating; details: 0 to 100 scale (0 no effect, 100 complete control)
Method in brief: as §1

[5] = tested on: morningglory (Ipomoea spp.); test: Test A preemergence, visual injury rating; details: 0 to 100 scale (0 no effect, 100 complete control)
Method in brief: as §1

[6] = tested on: pigweed (Amaranthus retroflexus); test: Test A preemergence, visual injury rating; details: 0 to 100 scale (0 no effect, 100 complete control)
Method in brief: as §1

[7] = tested on: velvetleaf (Abutilon theophrasti); test: Test A preemergence, visual injury rating; details: 0 to 100 scale (0 no effect, 100 complete control)
Method in brief: as §1

[8] = tested on: wheat (Triticum aestivum); test: Test A preemergence, visual injury rating; details: 0 to 100 scale (0 no effect, 100 complete control)
Method in brief: as §1

[9] = tested on: barnyardgrass (Echinochloa crus-galli); test: Test A postemergence, visual injury rating; details: 0 is no effect, 100 is complete control
Method in brief: as §1

corn (Zea mays) [10] = test: Test A postemergence, visual injury rating; details: 0 is no effect, 100 is complete control
Method in brief: as §1

[11] = tested on: giant foxtail (Setaria faberii); test: Test A postemergence, visual injury rating; details: 0 is no effect, 100 is complete control
Method in brief: as §1

[12] = tested on: large (Lg) crabgrass (Digitaria sanguinalis); test: Test A postemergence, visual injury rating; details: 0 is no effect, 100 is complete control
Method in brief: as §1

[13] = tested on: morningglory (Ipomoea spp.); test: Test A postemergence, visual injury rating; details: 0 is no effect, 100 is complete control
Method in brief: as §1

[14] = tested on: pigweed (Amaranthus retroflexus); test: Test A postemergence, visual injury rating; details: 0 is no effect, 100 is complete control
Method in brief: as §1

[15] = tested on: wheat (Triticum aestivum); test: Test A postemergence, visual injury rating; details: 0 is no effect, 100 is complete control
Method in brief: as §1

[16] = tested on: barnyardgrass (Echinochloa crus-galli); test: Test B flooded paddy test, plant response rating; details: 250 g ai/ha; Flood; scale of 0 to 100 where 0 is no effect and 100 is complete control; 13 to 15 days
Method in brief: (§2)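 Under a constant 3 cm flood, test compounds went directly into the paddy water. Following 13 to 15 days of greenhouse growth, treated species and controls were compared by eye.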

[17] = tested on: ducksalad (Heteranthera limosa); test: Test B flooded paddy test, plant response rating; details: 250 g ai/ha; Flood; scale of 0 to 100 where 0 is no effect and 100 is complete control; 13 to 15 days
Method in brief: as §2

rice (Oryza sativa) = test: Test B flooded paddy test, plant response rating; details: 250 g ai/ha; Flood; scale of 0 to 100 where 0 is no effect and 100 is complete control; 13 to 15 days
Method in brief: as §2

[18] = tested on: sedge, umbrella (small-flower umbrella sedge, Cyperus difformis); test: Test B flooded paddy test, plant response rating; details: 250 g ai/ha; Flood; scale of 0 to 100 where 0 is no effect and 100 is complete control; 13 to 15 days
Method in brief: as §2

[19] = tested on: velvetleaf (Abutilon theophrasti); test: Test A postemergence, visual injury rating; details: 0 is no effect, 100 is complete control
Method in brief: as §1

| SMILES | Barnyardgrass plant response rating ([1]; 1000 g ai/ha) | Corn plant response rating (corn (Zea mays) [2]; 1000 g ai/ha) | Foxtail, Giant plant response rating ([3]; 1000 g ai/ha) | Crabgrass, Large plant response rating ([4]; 1000 g ai/ha) | Morningglory plant response rating ([5]; 1000 g ai/ha) | Pigweed plant response rating ([6]; 1000 g ai/ha) | Velvetleaf plant response rating ([7]; 1000 g ai/ha) | Wheat plant response rating ([8]; 1000 g ai/ha) | Barnyardgrass plant response rating (0 to 100 scale) ([9]; 1000 g ai/ha) | Corn plant response rating (0 to 100 scale) (corn (Zea mays) [10]; 1000 g ai/ha) | Foxtail, Giant plant response rating (0 to 100 scale) ([11]; 1000 g ai/ha) | Crabgrass, Large plant response rating (0 to 100 scale) ([12]; 1000 g ai/ha) | Morningglory plant response rating (0 to 100 scale) ([13]; 1000 g ai/ha) | Pigweed plant response rating (0 to 100 scale) ([14]; 1000 g ai/ha) | Wheat plant response rating (0 to 100 scale) ([15]; 1000 g ai/ha) | Plant response rating, Barnyardgrass [16] | Plant response rating, Ducksalad [17] | Plant response rating, Rice (rice (Oryza sativa)) | Plant response rating, Sedge, Umbrella [18] | Corn plant response rating (corn (Zea mays) [2]; 500 g ai/ha) | also measured |
| --- | --- | --- | --- | --- | --- | --- | --- | --- | --- | --- | --- | --- | --- | --- | --- | --- | --- | --- | --- | --- | --- |
| CC(C)ON=Cc1ccccc1Oc1ncc(Cl)cn1 [Compound 57] | 50 | 0 | 90 | 100 | 0 | 60 | 20 | 0 | 20 | 20 | 20 | 30 | 10 | 40 | 20 | 0 | 0 | 0 | 0 |  |  |
| CC(=NOCc1ccccc1)c1ccccc1Oc1ncc(Cl)cn1 [Compound 58] | 90 | 20 | 100 | 100 | 0 | 50 | 20 | 20 | 40 | 30 | 60 | 80 | 30 | 100 | 20 | 0 | 0 | 0 | 0 |  | Velvetleaf plant response rating (0 to 100 scale) ([19]; 1000 g ai/ha): 90 |
| O=C(NCC(F)(F)F)c1ccccc1Oc1ncc(Br)cn1 [Compound 27] |  |  |  |  |  |  |  |  |  |  |  |  |  |  |  |  |  |  |  | 0 | Barnyardgrass plant response rating ([1]; 500 g ai/ha): 0; Foxtail, Giant plant response rating ([3]; 500 g ai/ha): 0; Crabgrass, Large plant response rating ([4]; 500 g ai/ha): 0; Morningglory plant response rating ([5]; 500 g ai/ha): 0; Pigweed plant response rating ([6]; 500 g ai/ha): 0; Velvetleaf plant response rating ([7]; 500 g ai/ha): 0; Wheat plant response rating ([8]; 500 g ai/ha): 0; Barnyardgrass plant response rating (0 to 100 scale) ([9]; 500 g ai/ha): 0; Corn plant response rating (0 to 100 scale) (corn (Zea mays) [10]; 500 g ai/ha): 0; Foxtail, Giant plant response rating (0 to 100 scale) ([11]; 500 g ai/ha): 0; Crabgrass, Large plant response rating (0 to 100 scale) ([12]; 500 g ai/ha): 0; Morningglory plant response rating (0 to 100 scale) ([13]; 500 g ai/ha): 0; Pigweed plant response rating (0 to 100 scale) ([14]; 500 g ai/ha): 0; Velvetleaf plant response rating (0 to 100 scale) ([19]; 500 g ai/ha): 0; Wheat plant response rating (0 to 100 scale) ([15]; 500 g ai/ha): 0 |
| O=C(NCC(F)(F)F)c1ccccc1Oc1ncc(Cl)cn1 [Compound 28, 2-[(5-chloro-2-pyrimidinyl)oxy]-N-(2,2,2-trifluoroethyl)benzamide] |  |  |  |  |  |  |  |  |  |  |  |  |  |  |  |  |  |  |  | 0 | pest or weed control at 500 g/ha ([1]; Echinochloa crus-galli, pre-emergence, 240 h, 500 g ai/ha, read-out: Barnyardgrass plant response rating): 20%; pest or weed control at 500 g/ha ([3]; Setaria faberi, pre-emergence, 240 h, 500 g ai/ha, read-out: Foxtail, Giant plant response rating): 20%; Crabgrass, Large plant response rating ([4]; 500 g ai/ha): 50; Morningglory plant response rating ([5]; 500 g ai/ha): 0; pest or weed control at 500 g/ha ([6]; Amaranthus retroflexus, pre-emergence, 240 h, 500 g ai/ha, read-out: Pigweed plant response rating): 80%; Velvetleaf plant response rating ([7]; 500 g ai/ha): 20; Wheat plant response rating ([8]; 500 g ai/ha): 0; pest or weed control at 500 g/ha ([9]; Echinochloa crus-galli, post-emergence, 240 h, 500 g ai/ha, read-out: Barnyardgrass plant response rating (0 to 100 scale)): 20%; plant injury at 500 g/ha (corn (Zea mays) [10]; Zea mays, post-emergence, 240 h, 500 g ai/ha, read-out: Corn plant response rating (0 to 100 scale)): 0%; pest or weed control at 500 g/ha ([11]; Setaria faberi, post-emergence, 240 h, 500 g ai/ha, read-out: Foxtail, Giant plant response rating (0 to 100 scale)): 0%; Crabgrass, Large plant response rating (0 to 100 scale) ([12]; 500 g ai/ha): 0; Morningglory plant response rating (0 to 100 scale) ([13]; 500 g ai/ha): 0; pest or weed control at 500 g/ha ([14]; Amaranthus retroflexus, post-emergence, 240 h, 500 g ai/ha, read-out: Pigweed plant response rating (0 to 100 scale)): 20%; Velvetleaf plant response rating (0 to 100 scale) ([19]; 500 g ai/ha): 30; plant injury at 500 g/ha ([15]; Triticum aestivum, post-emergence, 240 h, 500 g ai/ha, read-out: Wheat plant response rating (0 to 100 scale)): 0% |
| CC(=NOC(C)(C)C)c1ccccc1Oc1ncc(Cl)cn1 [Compound 59] | 20 | 0 | 30 | 80 | 0 | 30 | 0 | 0 | 0 | 20 | 10 | 10 | 0 | 30 | 30 |  |  |  |  |  |  |
